Reference: the Kinase Knowledgebase extract (Sharma et al. 2016)
pIC50: −log10 of the molar value.

Experiments:
PIK3CD (Human) [1] = biological target: PIK3CD (Human) (UniProt O00329); assay: Assessment of PIK3CD Kinase Activity in RAJI Cells
PIK3CG (human) = PIK3CG (human) (UniProt P48736); assay: Assessment of PIK3CG Kinase Activity
PIK3CB (Human) [2] = biological target: PIK3CB (Human) (UniProt P42338); assay: Assessment of PIK3CB Kinase Activity in 786-O Cells
PIK3CD (Human) [3] = biological target: PIK3CD (Human) (UniProt O00329); assay: Assessment of PIK3CD Kinase Activity
PIK3CB (Human) [4] = biological target: PIK3CB (Human) (UniProt P42338); assay: Assessment of PIK3CB Kinase Activity
PIK3CA (human) [5] = biological target: PIK3CA (human) (UniProt P42336); assay: Assessment of PIK3CA Kinase Activity
PIK3CA (human) [6] = biological target: PIK3CA (human) (UniProt P42336); assay: Assessment of PIK3CA Kinase Activity in SKOV-3 Cells

Chain of PIK3CG (human) (P48736 whole entry, looked up): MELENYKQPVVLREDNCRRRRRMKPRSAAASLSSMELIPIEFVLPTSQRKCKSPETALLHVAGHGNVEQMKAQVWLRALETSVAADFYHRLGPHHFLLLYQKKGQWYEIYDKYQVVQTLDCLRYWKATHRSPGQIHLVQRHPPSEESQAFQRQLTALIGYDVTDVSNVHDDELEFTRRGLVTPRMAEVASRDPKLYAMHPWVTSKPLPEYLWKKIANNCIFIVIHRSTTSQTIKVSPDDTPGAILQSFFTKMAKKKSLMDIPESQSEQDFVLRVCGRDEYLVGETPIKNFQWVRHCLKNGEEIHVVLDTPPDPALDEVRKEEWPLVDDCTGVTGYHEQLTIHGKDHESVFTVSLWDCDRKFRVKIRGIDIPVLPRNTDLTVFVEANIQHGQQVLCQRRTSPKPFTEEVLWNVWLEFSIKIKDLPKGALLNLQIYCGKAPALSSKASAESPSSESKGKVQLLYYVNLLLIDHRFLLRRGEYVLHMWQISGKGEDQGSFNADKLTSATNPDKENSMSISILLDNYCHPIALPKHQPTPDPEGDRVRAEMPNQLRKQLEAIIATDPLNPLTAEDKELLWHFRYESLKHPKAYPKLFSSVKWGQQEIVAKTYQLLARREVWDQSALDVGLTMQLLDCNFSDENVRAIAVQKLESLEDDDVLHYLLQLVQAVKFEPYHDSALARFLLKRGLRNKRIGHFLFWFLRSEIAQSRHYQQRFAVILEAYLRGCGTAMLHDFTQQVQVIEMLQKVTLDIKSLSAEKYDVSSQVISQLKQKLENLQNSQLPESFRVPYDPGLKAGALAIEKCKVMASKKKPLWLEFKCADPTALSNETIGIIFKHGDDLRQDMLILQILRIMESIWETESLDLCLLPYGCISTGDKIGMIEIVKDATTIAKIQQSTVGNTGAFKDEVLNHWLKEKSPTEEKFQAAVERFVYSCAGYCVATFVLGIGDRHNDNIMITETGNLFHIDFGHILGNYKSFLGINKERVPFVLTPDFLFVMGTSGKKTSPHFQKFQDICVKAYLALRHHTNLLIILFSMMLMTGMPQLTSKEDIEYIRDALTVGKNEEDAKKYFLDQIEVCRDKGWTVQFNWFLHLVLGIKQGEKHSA
Chain of PIK3CD (Human) (O00329 whole entry, looked up): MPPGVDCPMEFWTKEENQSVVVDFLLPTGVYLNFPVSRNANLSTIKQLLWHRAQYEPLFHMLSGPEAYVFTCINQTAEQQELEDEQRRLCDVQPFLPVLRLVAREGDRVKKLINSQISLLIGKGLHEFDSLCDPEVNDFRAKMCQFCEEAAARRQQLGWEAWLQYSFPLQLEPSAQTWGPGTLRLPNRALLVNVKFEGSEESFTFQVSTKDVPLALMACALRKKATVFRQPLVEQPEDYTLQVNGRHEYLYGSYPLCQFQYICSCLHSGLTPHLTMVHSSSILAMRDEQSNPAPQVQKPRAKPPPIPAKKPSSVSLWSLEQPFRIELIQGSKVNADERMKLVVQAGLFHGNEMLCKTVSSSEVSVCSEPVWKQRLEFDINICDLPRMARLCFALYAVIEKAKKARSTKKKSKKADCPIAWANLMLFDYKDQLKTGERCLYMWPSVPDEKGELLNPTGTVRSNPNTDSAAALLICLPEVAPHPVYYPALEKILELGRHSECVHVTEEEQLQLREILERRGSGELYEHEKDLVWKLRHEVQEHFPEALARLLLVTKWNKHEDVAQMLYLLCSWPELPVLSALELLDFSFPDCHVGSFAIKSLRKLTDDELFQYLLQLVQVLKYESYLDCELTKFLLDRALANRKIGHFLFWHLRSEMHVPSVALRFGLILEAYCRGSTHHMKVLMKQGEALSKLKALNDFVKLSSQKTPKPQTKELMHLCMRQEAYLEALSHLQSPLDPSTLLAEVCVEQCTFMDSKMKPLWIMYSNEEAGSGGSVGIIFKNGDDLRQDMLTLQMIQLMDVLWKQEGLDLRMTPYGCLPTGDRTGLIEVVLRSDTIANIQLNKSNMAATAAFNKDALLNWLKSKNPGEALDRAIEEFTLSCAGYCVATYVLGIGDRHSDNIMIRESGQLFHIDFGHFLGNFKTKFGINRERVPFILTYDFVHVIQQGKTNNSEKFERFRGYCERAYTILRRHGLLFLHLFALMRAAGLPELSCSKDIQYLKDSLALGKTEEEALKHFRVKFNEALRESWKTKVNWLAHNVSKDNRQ
Chain of PIK3CA (human) (P42336 whole entry, looked up): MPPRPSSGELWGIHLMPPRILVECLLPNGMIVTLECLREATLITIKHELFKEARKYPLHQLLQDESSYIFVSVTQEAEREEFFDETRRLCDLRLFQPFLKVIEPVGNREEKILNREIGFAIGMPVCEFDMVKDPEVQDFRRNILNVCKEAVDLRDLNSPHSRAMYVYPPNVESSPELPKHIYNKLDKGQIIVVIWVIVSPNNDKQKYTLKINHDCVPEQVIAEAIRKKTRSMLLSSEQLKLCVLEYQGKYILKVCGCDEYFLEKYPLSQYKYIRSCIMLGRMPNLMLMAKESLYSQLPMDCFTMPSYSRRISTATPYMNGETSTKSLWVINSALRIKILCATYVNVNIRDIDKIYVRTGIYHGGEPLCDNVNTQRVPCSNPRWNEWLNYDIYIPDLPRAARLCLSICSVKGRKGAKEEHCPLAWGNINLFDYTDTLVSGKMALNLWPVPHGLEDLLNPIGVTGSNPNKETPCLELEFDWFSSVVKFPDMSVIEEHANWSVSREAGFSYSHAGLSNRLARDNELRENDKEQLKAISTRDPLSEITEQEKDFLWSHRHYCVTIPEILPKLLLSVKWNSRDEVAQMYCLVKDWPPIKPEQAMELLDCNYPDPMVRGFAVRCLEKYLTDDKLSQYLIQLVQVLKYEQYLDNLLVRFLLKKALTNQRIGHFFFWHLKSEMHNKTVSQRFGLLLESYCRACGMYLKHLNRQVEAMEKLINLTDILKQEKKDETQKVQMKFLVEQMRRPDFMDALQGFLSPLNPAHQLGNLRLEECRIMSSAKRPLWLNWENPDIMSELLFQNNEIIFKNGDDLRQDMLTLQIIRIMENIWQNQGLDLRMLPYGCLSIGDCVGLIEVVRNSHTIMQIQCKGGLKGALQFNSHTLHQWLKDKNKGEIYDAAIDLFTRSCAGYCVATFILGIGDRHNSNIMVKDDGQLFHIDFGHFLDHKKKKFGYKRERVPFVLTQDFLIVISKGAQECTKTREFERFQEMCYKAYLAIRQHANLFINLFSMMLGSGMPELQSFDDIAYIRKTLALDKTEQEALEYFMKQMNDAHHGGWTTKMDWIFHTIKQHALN
Chain of PIK3CB (Human) (P42338 whole entry, looked up): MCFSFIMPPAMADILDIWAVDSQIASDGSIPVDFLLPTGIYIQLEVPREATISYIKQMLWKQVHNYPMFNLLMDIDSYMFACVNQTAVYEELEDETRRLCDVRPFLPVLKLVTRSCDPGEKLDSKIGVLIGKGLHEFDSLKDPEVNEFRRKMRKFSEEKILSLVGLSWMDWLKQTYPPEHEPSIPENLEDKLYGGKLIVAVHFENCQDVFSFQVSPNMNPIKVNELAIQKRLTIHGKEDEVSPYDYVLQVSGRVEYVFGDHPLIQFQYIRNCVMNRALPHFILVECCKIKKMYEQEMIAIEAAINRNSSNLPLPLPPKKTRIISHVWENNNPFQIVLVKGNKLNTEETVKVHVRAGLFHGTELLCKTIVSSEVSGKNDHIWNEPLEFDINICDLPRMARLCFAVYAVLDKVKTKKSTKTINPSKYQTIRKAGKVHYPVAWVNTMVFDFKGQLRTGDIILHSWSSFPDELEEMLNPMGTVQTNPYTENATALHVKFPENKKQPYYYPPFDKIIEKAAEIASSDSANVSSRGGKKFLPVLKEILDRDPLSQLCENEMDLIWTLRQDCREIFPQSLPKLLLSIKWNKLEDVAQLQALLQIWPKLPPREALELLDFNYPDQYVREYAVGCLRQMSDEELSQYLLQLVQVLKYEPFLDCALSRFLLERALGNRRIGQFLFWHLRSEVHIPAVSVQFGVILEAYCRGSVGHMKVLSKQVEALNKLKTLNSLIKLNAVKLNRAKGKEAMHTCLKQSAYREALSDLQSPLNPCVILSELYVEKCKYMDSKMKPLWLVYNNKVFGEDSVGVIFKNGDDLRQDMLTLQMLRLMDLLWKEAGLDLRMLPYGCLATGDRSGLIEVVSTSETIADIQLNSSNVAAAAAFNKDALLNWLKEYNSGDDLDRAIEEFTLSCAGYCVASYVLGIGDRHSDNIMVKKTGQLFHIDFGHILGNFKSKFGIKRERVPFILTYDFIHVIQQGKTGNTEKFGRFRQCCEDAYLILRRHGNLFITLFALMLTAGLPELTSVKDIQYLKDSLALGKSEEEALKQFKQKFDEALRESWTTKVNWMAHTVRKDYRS

| SMILES | pIC50 (PIK3CD (Human) [1]) | pIC50 (PIK3CG (human)) | pIC50 (PIK3CB (Human) [2]) | pIC50 (PIK3CD (Human) [3]) | pIC50 (PIK3CB (Human) [4]) | pIC50 (PIK3CA (human) [5]) | pIC50 (PIK3CA (human) [6]) |
| --- | --- | --- | --- | --- | --- | --- | --- |
| C[C@H](Nc1nc(N)ncc1-c1cccc(NS(=O)(=O)N(C)C)c1)c1cc2cccc(Cl)c2c(=O)n1-c1ccccc1 | > 7.00 | > 7.00 |  | > 7.00 | 6.00 to 7.00 | < 5.00 |  |
| COc1ncc(-c2cccc3cc([C@H](C)Nc4nc(N)ncc4C#N)n(-c4ccccc4)c(=O)c23)cn1 | > 7.00 | > 7.00 | < 5.00 | > 7.00 | < 5.00 |  |  |
| C[C@H](Nc1nc(N)ncc1-c1cncs1)c1cc2cccc(-c3ccc(=O)n(C)c3)c2c(=O)n1-c1ccccc1 | > 7.00 | > 7.00 |  | > 7.00 | < 5.00 | < 5.00 |  |
| CC(C)OC(=O)c1cccc(-n2c([C@H](C)Nc3nc(N)ncc3C#N)cc3cccc(Cl)c3c2=O)c1 | > 7.00 | 6.00 to 7.00 |  | 6.00 to 7.00 | < 5.00 | < 5.00 |  |
| COc1ncc(-c2cccc3cc([C@H](C)Nc4ncnc(N)c4C#N)n(-c4ccccc4)c(=O)c23)cn1 | > 7.00 | 6.00 to 7.00 |  | > 7.00 | < 5.00 | < 5.00 |  |
| C[C@H](Nc1ncnc(N)c1C#N)c1cc2cccc(Cl)c2c(=O)n1-c1ccon1 | > 7.00 | 6.00 to 7.00 |  | 6.00 to 7.00 | < 5.00 | < 5.00 |  |
| C[C@H](Nc1nc(N)ncc1-c1cscn1)c1cc2cccc(-c3ccc(=O)n(C)c3)c2c(=O)n1-c1ccccc1 | > 7.00 | > 7.00 |  | > 7.00 | < 5.00 | < 5.00 |  |
| C[C@H](Nc1nc(N)ncc1C#N)c1cc2cccc(Cl)c2c(C(=O)NC2CCOCC2)n1 | > 7.00 | < 5.00 |  |  | < 5.00 | < 5.00 | < 5.00 |
| C[C@H](Nc1nc(N)ncc1-c1cccc(S(=O)(=O)N(C)C)c1)c1cc2cccc(Cl)c2c(=O)n1-c1ccccc1 | > 7.00 | > 7.00 |  | > 7.00 | 6.00 to 7.00 | 6.00 to 7.00 |  |

Continued, values first:

| pIC50 (PIK3CD (Human) [1]) | pIC50 (PIK3CG (human)) | pIC50 (PIK3CB (Human) [2]) | pIC50 (PIK3CD (Human) [3]) | pIC50 (PIK3CB (Human) [4]) | pIC50 (PIK3CA (human) [5]) | pIC50 (PIK3CA (human) [6]) | SMILES |
| --- | --- | --- | --- | --- | --- | --- | --- |
| > 7.00 | 6.00 to 7.00 | 6.00 to 7.00 | > 7.00 |  |  |  | CC(C)n1c([C@H](C)Nc2nc(N)ncc2C#N)cc2cccc(-c3ccc(=O)n(C)c3)c2c1=O |
| > 7.00 | 6.00 to 7.00 | 6.00 to 7.00 | > 7.00 |  |  |  | CC(C)n1c([C@H](C)Nc2ncnc(N)c2C#N)cc2cccc(-c3ccc(=O)n(C)c3)c2c1=O |
| > 7.00 |  |  | > 7.00 | < 5.00 | < 5.00 | 6.00 to 7.00 | Cc1ncc(-c2cccc3cc([C@H](C)Nc4nc(N)ncc4C#N)n(C(C)C)c(=O)c23)cn1 |
| > 7.00 | > 7.00 |  | > 7.00 |  |  | 6.00 to 7.00 | CCOc1nc(-c2cnc(N)nc2N[C@@H](C)c2cc3cccc(-c4ccc(=O)n(C)c4)c3c(=O)n2-c2ccccc2)cs1 |
| > 7.00 | > 7.00 |  | 6.00 to 7.00 | < 5.00 | < 5.00 |  | C[C@H](Nc1nc(N)ncc1C#N)c1cc2cccc(Cl)c2c(=O)n1-c1cc(F)cc(F)c1 |
| > 7.00 | > 7.00 |  | 6.00 to 7.00 | < 5.00 | < 5.00 |  | C[C@H](Nc1nc(N)ncc1-c1cn[nH]c1)c1cc2cccc(Cl)c2c(=O)n1-c1ccccc1 |
| > 7.00 | > 7.00 |  | 6.00 to 7.00 | < 5.00 | < 5.00 |  | C[C@H](Nc1nc(N)ncc1-c1ccoc1)c1cc2cccc(Cl)c2c(=O)n1-c1ccccc1 |
| > 7.00 | > 7.00 | < 5.00 | > 7.00 | < 5.00 | < 5.00 | < 5.00 | COc1nc(-c2cnc(N)nc2N[C@@H](C)c2cc3cccc(-c4ccc(=O)n(C)c4)c3c(=O)n2-c2ccccc2)cs1 |
